Laboratory results from patent US10414760B2, “Cytochrome P450 inhibitors and uses thereof” (ANGION BIOMEDICA CORP., priority 2016, dated 2019).

Target: T1, CYP26 (Mus musculus, UniProt O55127)
T1 construct: tissue Xenotech; host or cells: liver microsomes of ATRA-treated mice
T1 sequence (O55127 1-497): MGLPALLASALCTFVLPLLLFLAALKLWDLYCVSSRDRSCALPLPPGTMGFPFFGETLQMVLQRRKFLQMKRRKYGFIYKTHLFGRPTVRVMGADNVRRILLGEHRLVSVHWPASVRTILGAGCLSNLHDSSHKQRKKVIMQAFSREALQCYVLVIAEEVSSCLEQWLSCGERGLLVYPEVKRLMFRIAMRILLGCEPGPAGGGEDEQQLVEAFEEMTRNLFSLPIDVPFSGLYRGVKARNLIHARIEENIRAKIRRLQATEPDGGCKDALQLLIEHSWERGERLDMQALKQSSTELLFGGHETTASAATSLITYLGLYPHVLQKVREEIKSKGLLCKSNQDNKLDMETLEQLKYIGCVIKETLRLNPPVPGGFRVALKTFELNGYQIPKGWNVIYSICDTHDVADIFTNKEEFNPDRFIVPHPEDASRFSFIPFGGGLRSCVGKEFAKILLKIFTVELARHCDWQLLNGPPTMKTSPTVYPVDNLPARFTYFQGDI
Experiment: CYP26 inhibition: substrate depletion assay for ATRA metabolism in mouse microsomes
Assay type: biochemical
Procedure: Serum Testosterone and PSA and Tumor Testosterone Analysis. Tumor tissue obtained from mice will be homogenized in phosphate buffer (pH 7.4, 0.1 M) and homogenates centrifuged at 2000 g for 20 min. Testosterone concentrations in the serum and in the clear tissue homogenate supernatant will be determined with the ELISA kit from R&D Systems (Catalog # KGR010). Serum PSA concentrations will be measured using a PSA ELISA kit with a serum dilution according to the manufacturers instructions. • c. Breast cancer. To test the efficacy of compounds embodied herein against breast cancer, nude mice carrying human breast cancer lines that are estrogen receptor and Aromatase positive will be used. Cells will be grown in vitro and 2 million will be inoculated in Matrigel (50:50 volume ratio of cells to Matrigel). Cells will be distributed by s.c. injection at the right and left flanks or at the orthotopic sitest in 6 to 8 week old athymic nude mice (BALB/c strain) or severe combined immunodeficient mice under anesthesia. Animals will be treated with compound for 4 weeks, at which point animals will be sacrificed and collect blood samples and tumor tissue for the determination of serum and tumor estrogen levels. Tumors will be excised and a portion will be fixed in formalin for subsequent histochemical and immuno-histochemical analysis. The remainder will be snap frozen in liquid nitrogen and stored at −80° C. • 12. CYP26 inhibition activity. A substrate depletion assay for ATRA metabolism in mouse microsomes is used. […] The assay is run in a 100 μL reaction volume and stopped with an equal volume of methanol. […] CYP17 inhibition assay: In vitro assays for CYP17 17α-hydroxylase and C17,20-lyase activity, assays using rat and dog testis microsomes and ELISA kits from commercial vendors for the detection of formed products are employed. Incubation of rat testis microsomes with the substrate progesterone (P4) results, through the CYP17 17α-hydroxylase and C17,20-lyase activities, in a marked production of androstenedione (AD) in a time and enzyme-concentration dependent manner. […] In another control, microsomes isolated from rat livers, which are known to express very little or no CYP17, are shown to be devoid of this activity. Assays are also used that determine the activity of 17α-hydroxylase activity using P4 as a substrate and detecting HOP4 as a product (using dog testis microsomes) and the activity of C17,20-lyase by using HOP4 as a substrate and AD as a product (rat testis microsomes). • 14. CYP19 inhibition assay: For in vitro assays of CYP19 aromatase activity, commercially available CYP19 enzyme preparations (e.g. BD Gentest Supersomes Catalog #456260) and assay kits (e.g. BD Gentest Catalog #459520) are employed according to the manufacturers instructions.
CYP26 inhibition. […] The assay was run in a 100 μL reaction volume and stopped with an equal volume of methanol. […] Other compounds of formula (I) are similarly potent, for example with an IC50 of 1.6 nM.

Compound | IC50
CCC(C(c1ccc2nc(NC(=O)CC(C)(C)C(=O)O)sc2c1)n1ccnc1)N(C)C (stereo not shown) [Example 20, 4-((6-(-2-(dimethylamino)-1-(1H-imidazol-1-yl)butyl)benzo[d]thiazol-2-yl)amino)-2,2-dimethyl-4-oxobutanoic acid] | < 1000 nM
CCC(C(c1ccc2nc(-c3ccc(C(=O)O)cc3)sc2c1)n1ccnc1)N(C)CC (stereo not shown) [Example 58, 4-(6-(2-(Ethyl(methyl)amino)-1-(1H-imidazol-1-yl)butyl)benzo[d]thiazol-2-yl)benzoic acid] | < 1000 nM
CCC(C(c1ccc2nc(NC(=O)c3cccc(C(=O)O)c3)sc2c1)n1ccnc1)N(C)C (stereo not shown) [Example 41, 3-((6-(2-(dimethylamino)-1-(1H-imidazol-1-yl)butyl)benzo[d]thiazol-2-yl)carbamoyl)benzoic acid] | < 1000 nM
CCC(C(c1ccc2nc(NC(=O)C3CC4CCC3C4)sc2c1)n1ccnc1)N(C)C (stereo not shown) [Example 52, N-(6-(-2-(dimethylamino)-1-(1H-imidazol-1-yl)butyl)benzo[d]thiazol-2-yl)bicyclo[2.2.1]heptane-2-carboxamide] | < 1000 nM
CCC(C(c1ccc2nc(NC(=O)C3(C(=O)O)CCCC3)sc2c1)n1ccnc1)N(C)C (stereo not shown) [Example 47, 1-((6-(2-(Dimethylamino)-1-(1H-imidazol-1-yl)butyl)benzo[d]thiazol-2-yl)carbamoyl)cyclopentanecarboxylic acid] | < 1000 nM
CCC(CC)C(c1ccc2nc(-c3cccc(C(=O)O)c3)sc2c1)n1ccnc1 (stereo not shown) [3-(6-(2-Ethyl-1-(1H-imidazol-1-yl)butyl)benzo[d]thiazol-2-yl)benzoic acid] | < 1000 nM
CCC(C(c1ccc2nc(Nc3cccc(C(=O)O)c3)sc2c1)n1ccnc1)N(C)C (stereo not shown) [Example 39, 3-((6-(2-(dimethylamino)-1-(1H-imidazol-1-yl)butyl)benzo[d]thiazol-2-yl)amino)benzoic acid] | < 1000 nM
CCC(CC)C(c1ccc2nc(-c3ccc(C(=O)O)cc3)sc2c1)n1ccnc1 (stereo not shown) [Example 30, 4-(6-(2-Ethyl-1-(1H-imidazol-1-yl)butyl)benzo[d]thiazol-2-yl)benzoic acid] | < 1000 nM
CCC(C(c1ccc2nc(-c3cc(C(=O)O)cc(C(F)(F)F)c3)sc2c1)n1ccnc1)N(C)C (stereo not shown) [Example 70, 3-(6-(2-(Dimethylamino)-1-(1H-imidazol-1-yl)butyl)benzo[d]thiazol-2-yl)-5-(trifluoromethyl)benzoic acid] | < 1000 nM
CCC(C(c1ccc2nc(NCc3cccc(C(=O)O)c3)sc2c1)n1ccnc1)N(C)C (stereo not shown) [Example 7, 3-(((6-(2-(Dimethylamino)-1-(1H-imidazol-1-yl)butyl)benzo[d]thiazol-2-yl)amino)methyl)benzoic acid] | < 1000 nM
CCC(C(c1ccc2nc(-c3ccc(Cl)c(C(=O)O)c3)sc2c1)n1ccnc1)N(C)C (stereo not shown) [Example 64, 2-Chloro-5-(6-(2-(dimethylamino)-1-(1H-imidazol-1-yl)butyl)benzo[d]thiazol-2-yl)benzoic acid] | < 1000 nM
CCC(C(c1ccc2nc(NCc3ccc(C(=O)O)cc3)sc2c1)n1ccnc1)N(C)C (stereo not shown) [Example 35, 4-(((6-(2-(Dimethylamino)-1-(1H-imidazol-1-yl)butyl)benzo[d]thiazol-2-yl)amino)methyl)benzoic acid] | < 1000 nM
CCC(C(c1ccc2nc(Oc3ccc(C(=O)O)cc3)sc2c1)n1ccnc1)N(C)C (stereo not shown) [Example 24, 4-((6-(2-(Dimethylamino)-1-(1H-imidazol-1-yl)butyl)benzo[d]thiazol-2-yl)oxy)benzoic acid] | < 1000 nM

Second part, the compound after the results:

IC50 | Compound
< 1000 nM | CCC(C(c1ccc2nc(Nc3ccc(C(=O)O)cc3)sc2c1)n1ccnc1)N(C)C (stereo not shown) [Example 17, 4-((6-(2-(Dimethylamino)-1-(1H-imidazol-1-yl)butyl)benzo[d]thiazol-2-yl)amino)benzoic acid]
< 1000 nM | CCC(C(c1ccc2nc(NC(=O)C3(C(=O)O)CCC3)sc2c1)n1ccnc1)N(C)C (stereo not shown) [Example 43, 1-((6-(2-(Dimethylamino)-1-(1H-imidazol-1-yl)butyl)benzo[d]thiazol-2-yl)carbamoyl)cyclobutanecarboxylic acid]
< 1000 nM | CCC(C(c1ccc2nc(Oc3cccc(C(=O)O)c3)sc2c1)n1ccnc1)N(C)C (stereo not shown) [Example 54, 3-((6-(2-(Dimethylamino)-1-(1H-imidazol-1-yl)butyl)benzo[d]thiazol-2-yl)oxy)benzoic acid]
< 1000 nM | CCC(C(c1ccc2nc(-c3cccc(-c4nn[nH]n4)c3)sc2c1)n1ccnc1)N(C)C (stereo not shown) [Example 71, 1-(2-(3-(2H-Tetrazol-5-yl)phenyl)benzo[d]thiazol-6-yl)-1-(1H-imidazol-1-yl)-N,N-dimethylbutan-2-amine]
< 1000 nM | CCC(C(c1ccc2nc(-c3ccc(-c4nn[nH]n4)cc3)sc2c1)n1ccnc1)N(C)C (stereo not shown) [Example 72, 1-(2-(4-(2H-Tetrazol-5-yl)phenyl)benzo[d]thiazol-6-yl)-1-(1H-imidazol-1-yl)-N,N-dimethylbutan-2-amine]
< 1000 nM | CCC(C(c1ccc2nc(NC(=O)C3(C(=O)O)CCCCC3)sc2c1)n1ccnc1)N(C)C (stereo not shown) [Example 45, 1-((6-(2-(Dimethylamino)-1-(1H-imidazol-1-yl)butyl)benzo[d]thiazol-2-yl)carbamoyl)cyclohexanecarboxylic acid]
< 1000 nM | CCC(C(c1ccc2nc(-c3cccc(C(=O)O)c3)sc2c1)n1ccnc1)N(C)C (stereo not shown) [Example 56, 3-(6-(2-(Dimethylamino)-1-(1H-imidazol-1-yl)butyl)benzo[d]thiazol-2-yl)benzoic acid]
< 1000 nM | CCC(C(c1ccc2nc(-c3ccc(F)c(C(=O)O)c3)sc2c1)n1ccnc1)N(C)C (stereo not shown) [Example 66, 5-(6-(2-(Dimethylamino)-1-(1H-imidazol-1-yl)butyl)benzo[d]thiazol-2-yl)-2-fluorobenzoic acid]
< 1000 nM | CCC(C(c1ccc2nc(NC(=O)c3ccc(C(=O)O)cc3)sc2c1)n1ccnc1)N(C)C (stereo not shown) [Example 22, 4-((6-(2-(dimethylamino)-1-(1H-imidazol-1-yl)butyl)benzo[d]thiazol-2-yl)carbamoyl)benzoic acid]
< 1000 nM | CCC(C(c1ccc2nc(-c3ccc(C(=O)O)c(Cl)c3)sc2c1)n1ccnc1)N(C)C (stereo not shown) [Example 62, 2-Chloro-4-(6-(2-(dimethylamino)-1-(1H-imidazol-1-yl)butyl)benzo[d]thiazol-2-yl)benzoic acid]
< 1000 nM | CCC(C(c1ccc2nc(-c3cccc(C(=O)O)c3)sc2c1)n1ccnc1)N(C)CC (stereo not shown) [Example 60, 3-(6-(2-(Ethyl(methyl)amino)-1-(1H-imidazol-1-yl)butyl)benzo[d]thiazol-2-yl)benzoic acid]
< 1000 nM | CCC(C(c1ccc2nc(-c3ccc(C(=O)O)cc3)sc2c1)n1ccnc1)N(C)C (stereo not shown) [Example 26, 4-(6-(2-(Dimethylamino)-1-(1H-imidazol-1-yl)butyl)benzo[d]thiazol-2-yl)benzoic acid]
< 1000 nM | CCC(CC)C(c1ccc2nc(-c3ccc(Cl)c(C(=O)O)c3)sc2c1)n1ccnc1 (stereo not shown) [Example 74, 2-Chloro-5-(6-(2-ethyl-1-(1H-imidazol-1-yl)butyl)benzo[d]thiazol-2-yl)benzoic acid]
< 1000 nM | CCC(CC)C(c1ccc2nc(-c3ccc(Cl)c(C(=O)OC)c3)sc2c1)n1ccnc1 (stereo not shown) [Example 73, Methyl 2-chloro-5-(6-(2-ethyl-1-(1H-imidazol-1-yl)butyl)benzo[d]thiazol-2-yl)benzoate]
< 1000 nM | CCC(C(c1ccc2nc(-c3cc(F)cc(C(=O)O)c3)sc2c1)n1ccnc1)N(C)C (stereo not shown) [Example 68, 3-(6-(2-(Dimethylamino)-1-(1H-imidazol-1-yl)butyl)benzo[d]thiazol-2-yl)-5-fluorobenzoicacid]
